Here are results for three compounds from ChEMBL document CHEMBL5465560, “Selectivity Literature for EUbOPEN Chemogenomic Library” (2024).

Experiment [1] addresses T1, Serine/threonine-protein kinase ULK1 (Homo sapiens) (UniProt O75385).
T1 sequence (whole entry): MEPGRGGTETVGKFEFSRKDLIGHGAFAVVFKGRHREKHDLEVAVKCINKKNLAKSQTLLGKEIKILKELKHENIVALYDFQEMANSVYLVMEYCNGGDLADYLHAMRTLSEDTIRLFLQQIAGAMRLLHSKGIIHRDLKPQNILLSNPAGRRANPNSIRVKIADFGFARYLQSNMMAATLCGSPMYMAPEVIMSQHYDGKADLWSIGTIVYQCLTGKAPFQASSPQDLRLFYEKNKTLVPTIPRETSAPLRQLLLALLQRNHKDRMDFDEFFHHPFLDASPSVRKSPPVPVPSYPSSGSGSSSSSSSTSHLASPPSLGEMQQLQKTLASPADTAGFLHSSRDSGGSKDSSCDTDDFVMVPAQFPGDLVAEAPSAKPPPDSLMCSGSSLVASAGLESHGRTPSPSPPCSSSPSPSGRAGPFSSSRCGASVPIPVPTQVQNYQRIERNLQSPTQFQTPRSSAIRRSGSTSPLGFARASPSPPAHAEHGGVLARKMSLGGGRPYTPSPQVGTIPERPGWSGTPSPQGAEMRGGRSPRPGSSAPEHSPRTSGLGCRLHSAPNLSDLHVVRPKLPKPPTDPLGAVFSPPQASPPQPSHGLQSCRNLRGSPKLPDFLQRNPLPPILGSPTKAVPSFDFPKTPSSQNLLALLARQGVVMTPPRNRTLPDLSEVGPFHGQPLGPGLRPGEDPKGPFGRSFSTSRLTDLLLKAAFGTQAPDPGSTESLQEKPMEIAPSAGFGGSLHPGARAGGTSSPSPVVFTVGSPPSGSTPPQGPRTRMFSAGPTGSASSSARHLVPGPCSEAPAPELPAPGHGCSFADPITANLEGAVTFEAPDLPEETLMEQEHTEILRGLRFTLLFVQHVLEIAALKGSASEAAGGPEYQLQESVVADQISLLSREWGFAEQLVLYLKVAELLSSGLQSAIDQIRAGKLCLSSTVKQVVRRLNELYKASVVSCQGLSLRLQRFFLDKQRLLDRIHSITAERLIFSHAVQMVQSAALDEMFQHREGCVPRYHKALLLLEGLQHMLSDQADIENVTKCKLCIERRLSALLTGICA
Kind of experiment: Selectivity interaction (KinomeScan (DiscoverX)) EUB0000229b ULK1. Conditions: at 10 µM.

The target of experiment [2] is T2, Ephrin type-B receptor 2 (Homo sapiens) (UniProt P29323).
T2 sequence (whole entry): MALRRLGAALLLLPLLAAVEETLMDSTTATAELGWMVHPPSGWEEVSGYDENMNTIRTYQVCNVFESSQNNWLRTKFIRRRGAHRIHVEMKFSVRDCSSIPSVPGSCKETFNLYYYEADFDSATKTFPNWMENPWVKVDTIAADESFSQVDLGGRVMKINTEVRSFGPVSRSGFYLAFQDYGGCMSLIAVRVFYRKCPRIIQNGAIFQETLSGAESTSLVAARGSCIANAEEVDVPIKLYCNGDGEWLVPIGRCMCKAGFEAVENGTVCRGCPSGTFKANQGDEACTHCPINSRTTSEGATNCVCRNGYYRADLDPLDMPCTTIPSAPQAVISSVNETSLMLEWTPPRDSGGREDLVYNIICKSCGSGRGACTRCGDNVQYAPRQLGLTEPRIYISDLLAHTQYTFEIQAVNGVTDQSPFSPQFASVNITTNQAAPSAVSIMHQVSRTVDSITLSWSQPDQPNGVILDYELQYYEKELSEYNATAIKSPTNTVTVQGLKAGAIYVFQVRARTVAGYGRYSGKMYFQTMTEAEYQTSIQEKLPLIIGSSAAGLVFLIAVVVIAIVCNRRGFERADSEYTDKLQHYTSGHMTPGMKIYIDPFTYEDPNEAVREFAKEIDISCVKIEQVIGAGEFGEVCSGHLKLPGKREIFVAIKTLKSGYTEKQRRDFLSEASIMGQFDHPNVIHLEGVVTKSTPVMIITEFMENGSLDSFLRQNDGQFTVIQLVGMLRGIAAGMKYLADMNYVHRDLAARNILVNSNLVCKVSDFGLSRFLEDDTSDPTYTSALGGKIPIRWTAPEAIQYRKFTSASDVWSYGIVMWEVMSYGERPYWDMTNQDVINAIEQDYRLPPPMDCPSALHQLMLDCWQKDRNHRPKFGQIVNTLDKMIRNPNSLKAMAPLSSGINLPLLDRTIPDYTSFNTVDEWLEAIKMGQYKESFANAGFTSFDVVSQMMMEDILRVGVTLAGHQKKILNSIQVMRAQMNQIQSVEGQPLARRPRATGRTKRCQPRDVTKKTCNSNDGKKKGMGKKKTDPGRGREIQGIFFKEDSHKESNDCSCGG
Kind of experiment: Selectivity interaction (KinomeScan (DiscoverX)) EUB0001619a EPHB2. The following applies: at 1 µM.

The target in experiment [3] is Mast/stem cell growth factor receptor Kit (Homo sapiens, UniProt P10721). Kind of experiment: Selectivity interaction (Kinase panel (Invitrogen)) EUB0000639a KIT. Conditions: at 200 nM.
Chain of Mast/stem cell growth factor receptor Kit (P10721 whole entry): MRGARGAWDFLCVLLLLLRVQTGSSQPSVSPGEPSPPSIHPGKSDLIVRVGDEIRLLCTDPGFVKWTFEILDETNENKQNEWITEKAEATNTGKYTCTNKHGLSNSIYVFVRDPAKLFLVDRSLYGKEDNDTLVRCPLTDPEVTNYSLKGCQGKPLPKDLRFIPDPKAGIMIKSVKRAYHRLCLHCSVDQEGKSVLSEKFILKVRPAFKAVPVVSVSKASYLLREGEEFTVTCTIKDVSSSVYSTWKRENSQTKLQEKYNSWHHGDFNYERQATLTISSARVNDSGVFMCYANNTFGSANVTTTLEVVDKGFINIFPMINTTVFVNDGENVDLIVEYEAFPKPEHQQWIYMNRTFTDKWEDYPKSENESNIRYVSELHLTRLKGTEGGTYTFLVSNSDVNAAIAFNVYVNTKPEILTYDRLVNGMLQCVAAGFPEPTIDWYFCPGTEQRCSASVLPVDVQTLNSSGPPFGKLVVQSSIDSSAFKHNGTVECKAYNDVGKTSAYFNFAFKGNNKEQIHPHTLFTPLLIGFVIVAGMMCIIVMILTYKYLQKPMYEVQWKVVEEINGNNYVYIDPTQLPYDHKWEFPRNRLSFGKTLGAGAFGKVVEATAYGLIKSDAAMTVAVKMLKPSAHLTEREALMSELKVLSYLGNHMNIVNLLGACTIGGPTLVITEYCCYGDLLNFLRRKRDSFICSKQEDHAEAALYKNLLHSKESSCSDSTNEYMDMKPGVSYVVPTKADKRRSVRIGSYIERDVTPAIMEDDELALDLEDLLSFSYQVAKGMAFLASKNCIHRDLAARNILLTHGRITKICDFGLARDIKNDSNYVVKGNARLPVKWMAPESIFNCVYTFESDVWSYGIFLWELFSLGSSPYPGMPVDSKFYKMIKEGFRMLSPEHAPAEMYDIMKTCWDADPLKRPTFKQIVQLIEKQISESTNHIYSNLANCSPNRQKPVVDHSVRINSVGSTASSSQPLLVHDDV

In the case of `COc1cc(N(C)c2ccnc3ccc(C(F)(F)F)cc23)cc(OC)c1OC`, in experiment [1], the % binding is 73%.
For `N#Cc1cccc(-c2c[nH]c3ncnc(N4CCOCC4)c23)c1`, in experiment [2], the % of control was found to be 92%.
For `CC[C@@H]1[C@H](F)C(=O)N[C@@H]1COc1nccc2cc(C(N)=O)c(OC)cc12` [ZIMLOVISERTIB], the % of inhibition in experiment [3] was 1.04%.
